These results are taken from patent US20080312211A1, “Antibacterial Pyrrolopyridines, Pyrrolopyrimidines and Pyrroloazepines-154” (ASTRAZENECA AB, priority 2005, published 2008).

The melting point is the temperature of the solid-liquid transition.

The subject of series [1] is Streptococcus pneumoniae. Put plainly: Bacterial susceptibility testing in liquid media (MIC). To be noted: lowest concentration reducing growth by 80% or more; 37 degrees C., 24 hrs. Also noted: unit not given here. The class given is cell-based. The protocol: Compounds were tested for antimicrobial activity by susceptibility testing in liquid media. Compounds were dissolved in dimethylsulfoxide and tested in 10 doubling dilutions in the susceptibility assays. The organisms used in the assay were grown overnight on suitable agar media and then suspended in a liquid medium appropriate for the growth of the organism. The suspension was a 0.5 McFarland and a further 1 in 10 dilution was made into the same liquid medium to prepare the final organism suspension in 100 μL. Plates were incubated under appropriate conditions at 37 degrees C. for 24 hrs prior to reading. The Minimum Inhibitory Concentration was determined as the lowest drug concentration able to reduce growth by 80% or more.

With `COC(=O)c1cnc(N2CCC(n3c(=O)[nH]c4c(C#N)c(C)[nH]c4c3=O)CC2)s1` [Example 1, Methyl 2-[4-(7-cyano-6-methyl-2,4-dioxo-1,2,4,5-tetrahydro-3H-pyrrolo[3,2-d]pyrimidin-3-yl)piperidin-1-yl]-1,3-thiazole-5-carboxylate], the melting point was > 345 °C (dec.).
`COC1CN(c2ncc(C(=O)O)s2)CCC1n1ccc2c(Cl)c(C)[nH]c2c1=O` (stereo not drawn) [Example 22, 2-[3,4-cis-4-(3-Chloro-2-methyl-7-oxo-1,7-dihydro-6H-pyrrolo[2,3-c]pyridin-6-yl)-3-methoxypiperidin-1-yl]-1,3-thiazole-5-carboxylic acid] had an MIC in series [1] of 50.
